From US4695545A, “Culture and process for producing A41030 antibiotics” (Eli Lilly and Company, priority 1984, dated 1987)
Converted amounts (≈) assume the structure as drawn.

Experiments:
[1] = test system: Peptostreptococcus anaerobius; assay: MIC anaerobic bacteria, agar-dilution; type: cell-based; conditions: Peptostreptococcus anaerobius 1428
[2] = Solubility in solvents; type: physicochemical; conditions: qualitative
Text: As many as seven antibiotic factors are recovered from the fermentation and are obtained as a mixture, the A41030 complex. It will be recognized that the ratio of the factors in the A41030 complex will vary, depending upon the fermentation conditions used. The individual factors A, B, C, D, E, F, and G are separated and isolated as individual compounds, as hereinafter described.

[3] = test system: Haemophilus influenzae; assay: MIC aerobic bacteria, standard agar-dilution assay; type: cell-based
[4] = test system: Propionibacterium acnes; assay: MIC anaerobic bacteria, agar-dilution; type: cell-based; conditions: Propionibacterium acnes 79; agar-dilution (Table 9)
[5] = test system: Klebsiella pneumoniae; assay: MIC aerobic bacteria, standard agar-dilution assay; type: cell-based; conditions: Klebsiella pneumoniae X26, 24 hours
[6] = test system: Fusobacterium necrophorum; assay: MIC anaerobic bacteria, agar-dilution; type: cell-based; conditions: Fusobacterium necrophorum 6054A
[7] = test system: Streptococcus pyogenes; assay: MIC aerobic bacteria, standard agar-dilution assay; type: cell-based; conditions: Streptococcus pyogenes C203, 24 hours
[8] = test system: Clostridium difficile; assay: MIC against Clostridium difficile strains, agar-dilution; type: cell-based
Text: The A41030 antibiotic factors A, B, C, D, E, F, and G, are also active against a number of strains of Clostridium difficile, as determined by the agardilution method.

[9] = test system: Streptococcus sp. Group D; assay: MIC aerobic bacteria, standard agar-dilution assay; type: cell-based
[10] = test system: Bacteroides corrodens; assay: MIC anaerobic bacteria, agar-dilution; type: cell-based; conditions: Bacteroides corrodens 1874
[11] = test system: Peptostreptococcus intermedius; assay: MIC anaerobic bacteria, agar-dilution; type: cell-based; conditions: Peptostreptococcus intermedius 1264
[12] = test system: Bacteroides melaninogenicus; assay: MIC anaerobic bacteria, agar-dilution; type: cell-based; conditions: Bacteroides melaninogenicus 2736
[13] = test system: Bacteroides thetaiotaomicron; assay: MIC anaerobic bacteria, agar-dilution; type: cell-based; conditions: Bacteroides thetaiotaomicron 1438
[14] = test system: Clostridium perfringens; type: cell-based; conditions: Clostridium perfringens 81; agar-dilution
[15] = test system: Peptococcus prevoti; assay: MIC anaerobic bacteria, agar-dilution; type: cell-based; conditions: Peptococcus prevoti 1281
[16] = test system: Streptococcus pneumoniae; assay: MIC aerobic bacteria, standard agar-dilution assay; type: cell-based; conditions: Streptococcus pneumoniae Park I, 24 hours
[17] = test system: Staphylococcus epidermidis; assay: MIC aerobic bacteria, standard agar-dilution assay; type: cell-based
[18] = test system: Eubacterium aerofaciens; assay: MIC anaerobic bacteria, agar-dilution; type: cell-based; conditions: Eubacterium aerofaciens 1235
[19] = test system: Peptococcus asaccharolyticus; assay: MIC anaerobic bacteria, agar-dilution; type: cell-based; conditions: Peptococcus asaccharolyticus 1302
[20] = test system: Fusobacterium symbiosum; assay: MIC anaerobic bacteria, agar-dilution; type: cell-based; conditions: Fusobacterium symbiosum 1470
[21] = test system: Bacteroides vulgatis; assay: MIC anaerobic bacteria, agar-dilution; type: cell-based; conditions: Bacteroides vulgatis 1211
[22] = test system: Clostridium septicum; assay: MIC anaerobic bacteria, agar-dilution; type: cell-based; conditions: Clostridium septicum 1128
[23] = test system: Clostridium difficile; assay: MIC anaerobic bacteria, agar-dilution; type: cell-based; conditions: Clostridium difficile 2994; agar-dilution (Table 9)
[24] = test system: Bacteroides fragilis; assay: MIC anaerobic bacteria, agar-dilution; type: cell-based
[25] = test system: pseudorabies; type: cell-based
[26] = Electrometric titration (pKa); type: physicochemical; conditions: electrometric titration in 66% dimethylformamide in water; stated as possible
Text: Antibiotic A41030 factor A is a white, crystalline solid.

[27] = test system: S. pyogenes; assay: In vivo oral activity against S. pyogenes in mice
[28] = test system: Staphylococcus aureus; assay: MIC aerobic bacteria, standard agar-dilution assay; type: cell-based; conditions: Staphylococcus aureus S13E; agar-dilution, 24 hours
[29] = test system: Propionibacterium acnes; assay: MIC against Propionibacterium acnes strains, 24-hour agar-dilution; type: cell-based
Text: Antibiotic A41030 factors A, B and C have been tested and found to be active against a genus of anaerobic bacteria identified as Propionibacterium acnes.

[30] = mice
[31] = Streptococcus sp. Group D 9960, 24 hours
[32] = Streptococcus sp. Group D X66, 24 hours
[33] = Staphylococcus epidermidis EPI2, 24 hours

In the case of A41030 factor G, the MIC [1] was ≤ 0.5 µg/mL, the “solubility (solvents)” value [2] was “soluble in the same solvents as is factor A” and the MIC ([3]; Haemophilus influenzae 76, 24 hours) was 32 µg/mL. It also gave an MIC ([3]; Haemophilus influenzae C.L., 24 hours) of 32 µg/mL, an MIC [4] of 1.0 µg/mL and an MIC [5] of 64 µg/mL. For the same compound, the MIC [6] was 2 µg/mL, the MIC [7] was 2 µg/mL and the MIC ([8]; Clostridium difficile 78) was 1.0 µg/mL. The MIC ([8]; Clostridium difficile 107B) was 1.0 µg/mL, the MIC ([8]; Clostridium difficile 111F) was 1.0 µg/mL and the MIC ([8]; Clostridium difficile 1153) was 1.0 µg/mL. For the same compound, the MIC ([8]; Clostridium difficile 2634) was 1.0 µg/mL, the MIC ([8]; Clostridium difficile 3424-5B) was 1.0 µg/mL and the MIC ([8]; Clostridium difficile 3816) was 1.0 µg/mL. For the same compound, the MIC ([8]; Clostridium difficile 3950D) was 1.0 µg/mL, the MIC ([8]; Clostridium difficile 6890) was 1.0 µg/mL and the MIC ([8]; Clostridium difficile 8484) was 1.0 µg/mL. The MIC ([8]; Clostridium difficile A-194) was 1.0 µg/mL, the MIC ([8]; Clostridium difficile A-195) was 1.0 µg/mL and the MIC ([8]; Clostridium difficile A-196) was 1.0 µg/mL. The MIC ([8]; Clostridium difficile A-279) was 1.0 µg/mL, the MIC ([8]; Clostridium difficile A-280) was 1.0 µg/mL and the MIC ([8]; Clostridium difficile A-281) was 1.0 µg/mL. The MIC ([8]; Clostridium difficile WAL-2112) was 1.0 µg/mL, the MIC ([8]; Clostridium difficile WAL-3657) was 1.0 µg/mL and the MIC ([8]; Clostridium difficile WAL-4268) was 1.0 µg/mL. The MIC [9, 31] was 4 µg/mL, the MIC [9, 32] was 4 µg/mL and the MIC [10] was 32 µg/mL. The MIC [11] was 2 µg/mL, the MIC [12] was 64 µg/mL and the MIC [13] was 64 µg/mL. For the same compound, the MIC [14] was 2 µg/mL, the MIC [15] was 2 µg/mL and the MIC [16] was 2 µg/mL. For the same compound, the MIC ([17]; Staphylococcus epidermidis EPI1, 24 hours) was 0.5 µg/mL, the MIC [17, 33] was 0.5 µg/mL and the MIC [18] was 2 µg/mL. It also gave an MIC [19] of 1.0 µg/mL, an MIC [20] of 2 µg/mL and an MIC [21] of 64 µg/mL. The MIC [22] was 2 µg/mL, the MIC [23] was 2 µg/mL and the MIC ([24]; Bacteroides fragilis 111) was 32 µg/mL. For the same compound, the MIC ([24]; Bacteroides fragilis 1877) was 32 µg/mL and the MIC ([24]; Bacteroides fragilis 1936B) was 64 µg/mL.
For `NC1C(=O)NC2Cc3ccc(c(Cl)c3)Oc3cc4cc(c3O)Oc3ccc(cc3Cl)C(O)C3NC(=O)C(NC(=O)C4NC(=O)C(NC2=O)c2cc(O)cc(c2)Oc2cc1ccc2O)c1cc(Cl)c(O)c(c1)-c1c(O)cc(O)cc1C(C(=O)O)NC3=O` (centres unmarked) [factor A, A41030 factor A], the MIC [1] was ≤ 0.25 µg/mL, the “solubility (solvents)” value [2] was “soluble in alcohol-water mixtures, in dimethylsulfoxide, in dimethylformamide, in dimethylsulfoxide-water mixtures, in dimethylformamide-water mixtures, in dilute aqueous acid, and in dilute aqueous base” and the MIC ([3]; Haemophilus influenzae 251, 24 hours) was 2 µg/mL (≈ 1.62 µM). The MIC ([3]; Haemophilus influenzae Brun, 24 hours) was 8 µg/mL (≈ 6.49 µM), the MIC [4] was ≤ 0.25 µg/mL and the MIC [6] was 8 µg/mL (≈ 6.49 µM). It also gave an MIC [7] of 0.5 µg/mL (≈ 0.405 µM), an MIC ([8]; Clostridium difficile 78) of 1.0 µg/mL (≈ 0.811 µM) and an MIC ([8]; Clostridium difficile 107B) of 1.0 µg/mL (≈ 0.811 µM). The MIC ([8]; Clostridium difficile 111F) was 1.0 µg/mL (≈ 0.811 µM), the MIC ([8]; Clostridium difficile 1153) was 1.0 µg/mL (≈ 0.811 µM) and the MIC ([8]; Clostridium difficile 2634) was 1.0 µg/mL (≈ 0.811 µM). The MIC ([8]; Clostridium difficile 3424-5B) was 1.0 µg/mL (≈ 0.811 µM), the MIC ([8]; Clostridium difficile 3816) was 1.0 µg/mL (≈ 0.811 µM) and the MIC ([8]; Clostridium difficile 3950D) was 1.0 µg/mL (≈ 0.811 µM). For the same compound, the MIC ([8]; Clostridium difficile 6890) was 1.0 µg/mL (≈ 0.811 µM), the MIC ([8]; Clostridium difficile 8484) was 1.0 µg/mL (≈ 0.811 µM) and the MIC ([8]; Clostridium difficile A-194) was 1.0 µg/mL (≈ 0.811 µM). The MIC ([8]; Clostridium difficile A-195) was 1.0 µg/mL (≈ 0.811 µM), the MIC ([8]; Clostridium difficile A-196) was 1.0 µg/mL (≈ 0.811 µM) and the MIC ([8]; Clostridium difficile A-279) was 1.0 µg/mL (≈ 0.811 µM). For the same compound, the MIC ([8]; Clostridium difficile A-280) was 1.0 µg/mL (≈ 0.811 µM), the MIC ([8]; Clostridium difficile A-281) was 1.0 µg/mL (≈ 0.811 µM) and the MIC ([8]; Clostridium difficile WAL-2112) was 1.0 µg/mL (≈ 0.811 µM). The MIC ([8]; Clostridium difficile WAL-3657) was 1.0 µg/mL (≈ 0.811 µM), the MIC ([8]; Clostridium difficile WAL-4268) was 1.0 µg/mL (≈ 0.811 µM) and the “concentration at which activity in vitro was shown” value [25] was 20 µg/mL. For the same compound, the MIC [9, 31] was 2 µg/mL (≈ 1.62 µM), the MIC [9, 32] was 1 µg/mL (≈ 0.811 µM) and the MIC [10] was 64 µg/mL (≈ 51.9 µM). For the same compound, the MIC [11] was 1.0 µg/mL (≈ 0.811 µM), the MIC [12] was 4 µg/mL (≈ 3.24 µM) and the MIC [13] was 64 µg/mL (≈ 51.9 µM). The “possibly additional pKa's” value [26] was > 10.5, the “in vivo oral activity” value [27] was > 300 mg./kg.×2 and the MIC [14] was 0.5 µg/mL (≈ 0.405 µM). The MIC [15] was ≤ 0.25 µg/mL, the MIC [16] was 0.5 µg/mL (≈ 0.405 µM) and the MIC [28] was 0.25 µg/mL (≈ 0.203 µM). The MIC [17, 33] was 1 µg/mL (≈ 0.811 µM), the MIC [20] was 1.0 µg/mL (≈ 0.811 µM) and the MIC ([29]; P. acnes strain 104) was 0.25 µg/mL (≈ 0.203 µM). For the same compound, the MIC ([29]; P. acnes strain 107) was 0.06 µg/mL (≈ 0.0486 µM), the MIC ([29]; P. acnes strain 5170) was ≤ 0.03 µg/mL and the MIC ([29]; P. acnes strain 5176) was ≤ 0.03 µg/mL. For the same compound, the MIC ([29]; P. acnes strain 5187) was ≤ 0.03 µg/mL, the MIC ([29]; P. acnes strain 5197) was ≤ 0.03 µg/mL and the MIC ([29]; P. acnes strain 5226) was 0.5 µg/mL (≈ 0.405 µM). For the same compound, the MIC ([29]; P. acnes strain 5227) was ≤ 0.03 µg/mL, the MIC ([29]; P. acnes strain 5228) was 1.0 µg/mL (≈ 0.811 µM) and the MIC ([29]; P. acnes strain 5229) was 0.5 µg/mL (≈ 0.405 µM). For the same compound, the MIC ([29]; P. acnes strain 5246) was 0.06 µg/mL (≈ 0.0486 µM), the MIC ([29]; P. acnes strain 5292) was 0.06 µg/mL (≈ 0.0486 µM) and the MIC [21] was 32 µg/mL (≈ 25.9 µM). For the same compound, the LD50 [30] was > 300 mg/kg, the acute toxicity [30] was > 300 mg/kg and the MIC [22] was 2 µg/mL (≈ 1.62 µM). It also gave an MIC [23] of 32 µg/mL (≈ 25.9 µM), an MIC ([24]; Bacteroides fragilis 1877) of 32 µg/mL (≈ 25.9 µM) and an MIC ([24]; Bacteroides fragilis 1936B) of 64 µg/mL (≈ 51.9 µM).
